Among the test systems are HCT-116 colon; ACHN renal; SF-268 CNS; 786-0 renal; UO-31 renal; KM12 colon; HT29 colon; SNB-75 CNS; SK-MEL-2 melanoma; SR leukemia.
Test in all cases: inhibition of tumour cell growth, NCI panel, 48 h

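Exposure lasted 48 hours, with cells grown in 96-well plates and compounds tested at five concentrations. GI50 = concentration required for 50% inhibition of growth. TGI is the concentration that stops growth completely.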

Regarding `CC(C)[C@@]12C[C@@H](OC(=O)COC(=O)/C=C/c3ccccc3)[C@@](C)(O1)[C@@H]1CC[C@@H](C)[C@H]1[C@@H]2OC(=O)/C=C/c1ccccc1`, the GI50 in the assay on HCT-116 colon is more than 100 µM; in the assay on ACHN renal, 0.0591 µM; with 786-0 renal, more than 27.1 µM; in the assay on UO-31 renal it was 0.0656 µM; with KM12 colon, more than 100 µM; with HT29 colon, more than 100 µM. Also, the GI50 in the assay on SNB-75 CNS and in the assay with SK-MEL-2 melanoma was more than 100 µM throughout. Further, the TGI is more than 100 µM in the assay on HCT-116 colon; 0.443 µM in the assay with ACHN renal; more than 100 µM with SF-268 CNS; more than 100 µM in the assay with 786-0 renal; 0.216 µM in the assay with UO-31 renal; more than 100 µM in the assay with KM12 colon. The TGI in the assay with HT29 colon, in the assay with SNB-75 CNS and with SK-MEL-2 melanoma was more than 100 µM throughout.

Take `CCN(CCNc1ccc(C)c2sc3cc(Cl)ccc3c(=O)c12)CC(C)O` (configuration not stated): the GI50 in the assay on HCT-116 colon is 1.66 µM; with ACHN renal, 1.85 µM; in the assay on SF-268 CNS, 3.29 µM; with 786-0 renal, 1.44 µM; in the assay on KM12 colon, 1.84 µM; in the assay on HT29 colon, 1.65 µM. The GI50 with SNB-75 CNS is 1.75 µM. Further, the TGI with HCT-116 colon came to 3.02 µM; in the assay with ACHN renal, 3.48 µM; in the assay with SF-268 CNS it was 16 µM; in the assay with 786-0 renal, 2.75 µM; in the assay with KM12 colon, 3.88 µM; in the assay on HT29 colon, 3.17 µM. In the assay with SNB-75 CNS, this compound came in with a TGI of 3.57 µM.

As to `O=c1c(Sc2c(O)c3ccccc3c3ccccc3c2=O)c(O)c2ccccc2c2ccccc12`, the TGI was 78.5 µM with ACHN renal; 99 µM in the assay on SF-268 CNS; more than 100 µM in the assay with 786-0 renal; more than 100 µM in the assay with UO-31 renal; more than 100 µM in the assay with KM12 colon; more than 100 µM with HT29 colon. For the same compound, the results for the TGI with SNB-75 CNS and in the assay with SK-MEL-2 melanoma were more than 100 µM and 68.5 µM, respectively.

As for `CC(/C(=N/NC(=O)C(N)=O)c1c(Cl)ccc(Cl)c1O)C1(O)C(=O)Nc2ccccc21` (configuration not stated), the TGI in the assay on HCT-116 colon, in the assay on ACHN renal, in the assay on SF-268 CNS, in the assay on 786-0 renal, in the assay on UO-31 renal and in the assay on KM12 colon was more than 100 µM throughout. For the same compound, the TGI with HT29 colon, in the assay with SNB-75 CNS and in the assay with SK-MEL-2 melanoma was more than 100 µM in each case.

On to `COCC1N=C(c2cc(OC)c(OC)c(OC)c2-c2cc3c(cc2C2OCCCO2)OCO3)O[C@H]1c1ccccc1` (some centres not stated), for which the TGI in the assay on HCT-116 colon, with ACHN renal, with SF-268 CNS, in the assay on 786-0 renal, in the assay with UO-31 renal and in the assay on KM12 colon was more than 100 µM throughout. For the same compound, the TGI with HT29 colon, in the assay with SNB-75 CNS and in the assay with SK-MEL-2 melanoma was more than 100 µM in each case.

On to `O=C(/C=C/c1ccc(Cl)c(Cl)c1)c1ccc(F)cc1`, for which the TGI in the assay with HCT-116 colon was 20.3 µM; with ACHN renal, 31.6 µM; in the assay on SF-268 CNS it was 56.3 µM; with 786-0 renal it was 28.9 µM; in the assay with UO-31 renal, more than 100 µM; in the assay on KM12 colon, 21.9 µM. The TGI with HT29 colon came out at 27.6 µM; with SNB-75 CNS, 58.3 µM.

With `Fc1cccc2cc3ccc4cccc5ccc(c12)c3c45`, the TGI in the assay on HCT-116 colon, in the assay with ACHN renal, with SF-268 CNS, with 786-0 renal, with UO-31 renal and in the assay on KM12 colon was more than 100 µM in each case. Also, the TGI with HT29 colon and with SNB-75 CNS was more than 100 µM in each case.

In the case of `C=C1CC2(C[C@@H](c3ccccc3)O[C@@H](c3ccccc3)C2)OC1=O` (some centres not stated), the TGI is 3.71 µM in the assay with HCT-116 colon; 9.01 µM with ACHN renal; 23.6 µM in the assay with SF-268 CNS; 5.63 µM in the assay on 786-0 renal; 18.4 µM in the assay with UO-31 renal; 15.5 µM with KM12 colon. Further, the TGI in the assay on HT29 colon came to 8.97 µM; in the assay on SNB-75 CNS, 14.3 µM; with SK-MEL-2 melanoma, 11.3 µM.

On to `CCCCCCC#Cc1ccccc1C#CCO`, for which the GI50 in the assay with HCT-116 colon is 23.4 µM; in the assay on SR leukemia, 39.9 µM; in the assay with ACHN renal it was 18.5 µM; in the assay with SF-268 CNS, 30.6 µM; in the assay with 786-0 renal it was 31.3 µM; in the assay on UO-31 renal it was 18.8 µM. The GI50 was 18.6 µM with KM12 colon and 18.9 µM in the assay on SK-MEL-2 melanoma. Further, the TGI is 49.6 µM with HCT-116 colon; more than 100 µM in the assay on SR leukemia; 39 µM with ACHN renal; 65.2 µM with SF-268 CNS; 96.1 µM in the assay with 786-0 renal; 38.6 µM in the assay on UO-31 renal. In addition, the TGI in the assay on KM12 colon is 37.6 µM; in the assay with SK-MEL-2 melanoma, 39.8 µM.

As for `CC1=C(C(=O)Nc2cccc(Cl)c2)C(c2ccc([N+](=O)[O-])cc2)C(C(=O)Nc2cccc(Cl)c2)=C(C)N1`, the TGI with HCT-116 colon is 71.9 µM; in the assay on ACHN renal it was 97.9 µM; in the assay on SF-268 CNS, more than 100 µM; in the assay with 786-0 renal, 69.6 µM; in the assay on UO-31 renal it was 65.4 µM; in the assay with KM12 colon, 52.9 µM. The results for the TGI with HT29 colon, with SNB-75 CNS and with SK-MEL-2 melanoma were 35 µM, 91.1 µM and 32.9 µM, respectively.

Take `C=CCN(N=O)C(=O)N(CCCC(NC(C)=O)C(=O)NCc1ccccc1)Cc1ccccc1` (configuration not stated): the TGI in the assay on ACHN renal was more than 100 µM; in the assay on SF-268 CNS it was more than 100 µM; in the assay with 786-0 renal, more than 100 µM; in the assay on UO-31 renal, more than 100 µM; in the assay with KM12 colon, more than 100 µM; in the assay with HT29 colon, 82.4 µM. Moreover, the TGI with SNB-75 CNS and in the assay on SK-MEL-2 melanoma was more than 100 µM in each case.

Regarding `Cc1cccc(NC(=O)c2cc3cc(N=Nc4ccccc4Cl)ccc3oc2=O)c1`, the TGI with HCT-116 colon is 57.3 µM; with ACHN renal it was more than 100 µM; in the assay on SF-268 CNS it was 84.4 µM; with 786-0 renal, more than 100 µM; in the assay on UO-31 renal, 55.7 µM; in the assay with KM12 colon, 48.4 µM. Besides, the TGI in the assay with HT29 colon and in the assay on SNB-75 CNS was more than 100 µM throughout.

Turning to `COc1ccc(C(Cc2cc(OC)c(OC)c(OC)c2)C(=O)O)cc1` (configuration not stated), the TGI with HCT-116 colon, in the assay on ACHN renal, with SF-268 CNS, in the assay on 786-0 renal, in the assay on UO-31 renal and in the assay with KM12 colon was more than 100 µM in each case. Besides, the figures for the TGI in the assay on HT29 colon, with SNB-75 CNS and in the assay with SK-MEL-2 melanoma were more than 100 µM, 65.2 µM and more than 100 µM, respectively.

(Values after PubChem BioAssay (NCI).)
